Assay results: ChEMBL document CHEMBL4342418, “1,2,3-Triazole-containing hybrids as potential anticancer agents: Current developments, action mechanisms and structure-activity relationships” (Eur J Med Chem, 2019)
≈ marks a conversion by molar mass, not a printed value.

How the values were obtained:
HepG2 [1] = assay: Antiproliferative activity against human HepG2 cells assessed as reduction in cell viability after 72 hrs by MTT assay; assay type: functional, cell-based; details: HepG2, 72 h
A549/CDDP = assay: Antiproliferative activity against human A549/CDDP cells assessed as reduction in cell viability after 72 hrs by MTT assay; assay type: functional, cell-based
U-251 = assay: Antiproliferative activity against human U251 cells assessed as reduction in cell viability after 72 hrs by MTT assay; assay type: functional, cell-based; details: U-251, 72 h
A549/TR = assay: Antiproliferative activity against human A549/TR cells assessed as reduction in cell viability after 72 hrs by MTT assay; assay type: functional, cell-based
HCT-116 [2] = assay: Antiproliferative activity against human HCT116 cells assessed as reduction in cell viability after 72 hrs by MTT assay; assay type: functional, cell-based; details: HCT-116, 72 h
A549 [3] = assay: Antiproliferative activity against human A549 cells assessed as reduction in cell viability after 72 hrs by MTT assay; assay type: functional, cell-based; details: A549, 72 h
HepG2 [4] = assay: Antiproliferative activity against human HepG2 cells by SRB assay; assay type: functional, cell-based
SW480 = assay: Antiproliferative activity against human SW480 cells assessed as reduction in cell viability after 48 hrs by MTT assay; assay type: functional, cell-based; details: SW480, 48 h
MCF7 [5] = assay: Antiproliferative activity against human MCF7 cells by SRB assay; assay type: functional, cell-based
MCF7 [6] = assay: Antiproliferative activity against human MCF7 cells assessed as reduction in cell viability after 72 hrs by MTT assay; assay type: functional, cell-based; details: MCF7, 72 h
A549 [7] = assay: Antiproliferative activity against human A549 cells assessed as reduction in cell viability after 48 hrs by MTT assay; assay type: functional, cell-based; details: A549, 48 h
HeLa [8] = assay: Antiproliferative activity against human HeLa cells by SRB assay; assay type: functional, cell-based
[9] = Antiproliferative activity against human SMCC7721 cells assessed as reduction in cell viability after 48 hrs by MTT assay; assay type: functional, cell-based
DU-145 [10] = assay: Antiproliferative activity against human DU145 cells assessed as reduction in cell viability after 48 hrs by MTT assay; assay type: functional, cell-based; details: DU-145, 48 h
MCF7-DOX = assay: Antiproliferative activity against human MCF7/Dox cells by SRB assay; assay type: functional, cell-based
DU-145 [11] = assay: Antiproliferative activity against human DU145 cells by SRB assay; assay type: functional, cell-based
HL-60 = assay: Antiproliferative activity against human HL60 cells assessed as reduction in cell viability after 48 hrs by MTT assay; assay type: functional, cell-based; details: HL-60, 48 h
MCF7 [12] = assay: Antiproliferative activity against human MCF7 cells assessed as reduction in cell viability after 48 hrs by MTT assay; assay type: functional, cell-based; details: MCF7, 48 h
SK-OV-3 [13] = assay: Antiproliferative activity against human SKOV3 cells by SRB assay; assay type: functional, cell-based
HepG2 [14] = assay: Antiproliferative activity against human HepG2 cells by MTT assay; assay type: functional, cell-based
T47D = assay: Antiproliferative activity against human T47D cells assessed as reduction in cell viability after 72 hrs by MTT assay; assay type: functional, cell-based
A549 [15] = assay: Antiproliferative activity against human A549 cells by SRB assay; assay type: functional, cell-based
KB = assay: Antiproliferative activity against human KB cells by MTT assay; assay type: functional, cell-based
[16] = Antiproliferative activity against BAEC cells assessed as reduction in cell viability after 3 days by coulter counting method; assay type: functional, cell-based; details: Bos taurus, 72 h
L1210 = assay: Antiproliferative activity against mouse L1210 cells assessed as reduction in cell viability after 3 days by coulter counting method; assay type: functional, cell-based; details: L1210, 72 h
[17] = Antiproliferative activity against human GBM95 cells assessed as reduction in cell viability after 72 hrs by MTT assay; assay type: functional, cell-based
[18] = Antiproliferative activity against human GBM2 cells assessed as reduction in cell viability after 72 hrs by MTT assay; assay type: functional, cell-based; details: GBM2, 72 h
HeLa [19] = assay: Antiproliferative activity against human HeLa cells assessed as reduction in cell viability after 48 hrs by MTT assay; assay type: functional, cell-based
SK-OV-3 [20] = assay: Antiproliferative activity against human SKOV3 cells assessed as reduction in cell viability after 48 hrs by MTT assay; assay type: functional, cell-based; details: SK-OV-3, 48 h
MDA-MB-231 = assay: Antiproliferative activity against human MDA-MB-231 cells by SRB assay; assay type: functional
IMR-32 = assay: Antiproliferative activity against human IMR32 cells by SRB assay; assay type: functional
[21] = Antiproliferative activity against human MiaPaCa cells by SRB assay; assay type: functional; details: MIA PaCa-2
HT-29 [22] = assay: Antiproliferative activity against human HT-29 cells assessed as reduction in cell viability after 48 hrs by SRB assay; assay type: functional, cell-based; details: HT-29, 48 h
A549 [23] = assay: Antiproliferative activity against human A549 cells assessed as reduction in cell viability after 48 hrs by SRB assay; assay type: functional, cell-based; details: A549, 48 h
MCF7 [24] = assay: Antiproliferative activity against human MCF7 cells assessed as reduction in cell viability after 48 hrs by SRB assay; assay type: functional, cell-based; details: MCF7, 48 h
HCT-116 [25] = assay: Antiproliferative activity against human HCT116 cells assessed as reduction in cell viability after 48 hrs by SRB assay; assay type: functional, cell-based; details: HCT-116, 48 h
HT-29 [26] = assay: Potency index, ratio of Sorafenib IC50 to test compound IC50 for antiproliferative activity against human HT-29 cells; assay type: functional
HT-29 [27] = assay: Antiproliferative activity against human HT-29 cells assessed as reduction in cell viability after 72 hrs by MTT assay; assay type: functional, cell-based; details: HT-29, 72 h
MCF7 [28] = assay: Potency index, ratio of Sorafenib IC50 to test compound IC50 for antiproliferative activity against human MCF7 cells; assay type: functional
HT-29 [29] = assay: Antiproliferative activity against human HT-29 cells assessed as reduction in cell viability after 48 hrs by MTT assay; assay type: functional, cell-based; details: HT-29, 48 h
PC-3 = assay: cells; assay type: functional, cell-based; details: Homo sapiens, PC-3, 48 h
Description: Antiproliferative activity against human PC3 cells assessed as reduction in cell viability after 48 hrs by MTT assay

HGC-27 = assay: Antiproliferative activity against human HGC27 cells assessed as reduction in cell viability after 48 hrs by MTT assay; assay type: functional, cell-based; details: HGC-27, 48 h

With `CC(C)=CCC[C@]1(C)C=Cc2c(O)c3c(c(CC=C(C)C)c2O1)O[C@]12C(=C[C@@H]4C[C@H]1C(C)(C)O[C@@]2(C/C=C(/C)C(=O)O)C4=O)C3=O` [GAMBOGIC ACID] the IC50 (HepG2 [1]) was 0.29 to 4.67 µM, the IC50 (A549/CDDP) was 0.29 to 4.67 µM and the IC50 (U-251) was 0.29 to 4.67 µM. It also gave an IC50 (A549/TR) of 0.29 to 4.67 µM, an IC50 (HCT-116 [2]) of 0.29 to 4.67 µM and an IC50 (A549 [3]) of 0.29 to 4.67 µM.
For `COc1cc([C@@H]2c3cc4c(cc3[C@@H](O[C@@H]3O[C@@H]5CO[C@@H](C)O[C@H]5[C@H](O)[C@H]3O)[C@H]3COC(=O)[C@H]23)OCO4)cc(OC)c1O` [ETOPOSIDE], the IC50 (HepG2 [4]) was 6.94 to 50 µM, the IC50 (SW480) was 0.31 to 32.8 µM and the IC50 (MCF7 [5]) was 6.94 to 50 µM. The GI50 (MCF7 [6]) was 7.5 µg/mL (≈ 12.7 µM), the IC50 (A549 [7]) was 0.31 to 32.8 µM and the IC50 (HeLa [8]) was 6.94 to 50 µM. It also gave an IC50 [9] of 0.31 to 32.8 µM, an IC50 (DU-145 [10]) of 9.8 µM and an IC50 (MCF7-DOX) of 6.94 to 50 µM. For the same compound, the IC50 (DU-145 [11]) was 6.94 to 50 µM, the IC50 (HL-60) was 8.12 to 32.8 µM and the IC50 (MCF7 [12]) was 0.31 to 32.8 µM. The IC50 (SK-OV-3 [13]) was 6.94 to 50 µM, the IC50 (HepG2 [14]) was 11.8 to 15.7 µM and the GI50 (T47D) was 7.9 µg/mL (≈ 13.4 µM). It also gave an IC50 (A549 [15]) of 6.94 to 50 µM and an IC50 (KB) of 11.8 to 15.7 µM.
Work on `CS(=O)(=O)c1ccc(-c2cn(-c3cccc(-c4ccccn4)c3)nn2)cc1` yielded an IC50 [16] of 100 µM and an IC50 (L1210) of 100 µM.
In the case of `Cn1nnc2c(C(N)=O)ncn2c1=O` [TEMOZOLOMIDE], the IC50 [17] is reported as 625 µM and the IC50 [18] is reported as 1130 µM.
With `CCc1ccc(-n2cc(CNC(=O)C(=O)c3c[nH]c4ccccc34)nn2)cc1` the IC50 (HeLa [19]) was > 100 µM, the IC50 (DU-145 [10]) was 8.17 µM and the IC50 (SK-OV-3 [20]) was > 100 µM.
With `N#Cc1ccccc1Cn1cc(CNc2ccc3oc(-c4ccccc4)cc(=O)c3c2)nn1` the GI50 (MDA-MB-231) was 0.11 to 1 µM, the GI50 (IMR-32) was 0.11 to 1 µM and the GI50 [21] was 0.11 to 1 µM.
`CC[C@@]1(O)C(=O)OCc2c1cc1n(c2=O)Cc2cc3ccccc3nc2-1` [CAMPTOTHECIN] showed an IC50 (HT-29 [22]) of 0.03 to 0.8 µM, an IC50 (A549 [23]) of 0.03 to 0.8 µM and an IC50 (MCF7 [24]) of 0.03 to 0.8 µM. The IC50 (HCT-116 [25]) was 0.03 to 0.8 µM.
With `O=C(/C=C/c1cn(-c2ccccc2)nc1-c1ccccc1)OCc1cn(-c2ccc([N+](=O)[O-])cc2)nn1` the IC50 (HT-29 [22]) was 1.76 to 9.46 µM, the IC50 (A549 [23]) was 1.76 to 9.46 µM and the IC50 (MCF7 [24]) was 1.76 to 9.46 µM. For the same compound, the IC50 (HCT-116 [25]) was 1.76 to 9.46 µM.
For `CNC(=O)c1cc(Oc2ccc(-n3cc(-c4ccccc4F)nn3)cc2)ccn1`, the IC50 (MCF7 [6]) was 0.2 to 0.84 µM, the “Ratio IC50” value (HT-29 [26]) was 6.2 - 131.2 and the IC50 (HT-29 [27]) was 0.2 to 0.84 µM. For the same compound, the “Ratio IC50” value (MCF7 [28]) was 6.2 - 131.2.
In the case of `CNC(=O)c1cc(Oc2ccc(-n3cc(-c4cccc(F)c4)nn3)cc2)ccn1`, the IC50 (MCF7 [6]) is reported as 0.2 to 0.84 µM, the “Ratio IC50” value (HT-29 [26]) is reported as 6.2 - 131.2 and the IC50 (HT-29 [27]) is reported as 0.2 to 0.84 µM. The “Ratio IC50” value (MCF7 [28]) was 6.2 - 131.2.
`COc1ccc(-c2nc(Cn3cc(CN4C(=O)c5cccc6cccc(c56)C4=O)nn3)cc3c2[nH]c2ccccc23)cc1OC` showed an IC50 (MCF7 [6]) of 3.67 to 26.5 µM, an IC50 (HT-29 [29]) of 3.67 to 26.5 µM and an IC50 (PC-3) of 3.67 to 26.5 µM. The IC50 (HGC-27) was 3.67 to 26.5 µM.
`Cc1ccc(-c2nn(-c3ccccc3)cc2/C=C/C(=O)OCc2cn(-c3ccc([N+](=O)[O-])cc3)nn2)cc1` showed an IC50 (HT-29 [22]) of 1.76 to 9.46 µM, an IC50 (A549 [23]) of 1.76 to 9.46 µM and an IC50 (MCF7 [24]) of 1.76 to 9.46 µM. The IC50 (HCT-116 [25]) was 1.76 to 9.46 µM.
